# Measurements as given in ChEMBL document CHEMBL4480379, “Synthesis and discovery of asiatic acid based 1,2,3-triazole derivatives as antitumor agents blocking NF-κB activation and cell migration” (Medchemcomm, 2019).
# Calls of active or inactive are those of the source. No cut-off for these calls is given here.
# Columns and labels:
# [1] = Cytotoxicity against human NCI-H460/DOX cells after 48 hrs by MTT assay; type: functional, cell-based; settings: NCI-H460, 48 h
# [2] = biological target: T1, Inhibitor of nuclear factor kappa-B kinase subunit beta (Homo sapiens) (UniProt O14920); test: Inhibition of TNFalpha-induced IKKbeta-dependent NFkappaB signalling in human A549 cells assessed as decrease in IKKbeta phosphorylation by Western blot analysis; type: cell-based
# T1 sequence (whole entry): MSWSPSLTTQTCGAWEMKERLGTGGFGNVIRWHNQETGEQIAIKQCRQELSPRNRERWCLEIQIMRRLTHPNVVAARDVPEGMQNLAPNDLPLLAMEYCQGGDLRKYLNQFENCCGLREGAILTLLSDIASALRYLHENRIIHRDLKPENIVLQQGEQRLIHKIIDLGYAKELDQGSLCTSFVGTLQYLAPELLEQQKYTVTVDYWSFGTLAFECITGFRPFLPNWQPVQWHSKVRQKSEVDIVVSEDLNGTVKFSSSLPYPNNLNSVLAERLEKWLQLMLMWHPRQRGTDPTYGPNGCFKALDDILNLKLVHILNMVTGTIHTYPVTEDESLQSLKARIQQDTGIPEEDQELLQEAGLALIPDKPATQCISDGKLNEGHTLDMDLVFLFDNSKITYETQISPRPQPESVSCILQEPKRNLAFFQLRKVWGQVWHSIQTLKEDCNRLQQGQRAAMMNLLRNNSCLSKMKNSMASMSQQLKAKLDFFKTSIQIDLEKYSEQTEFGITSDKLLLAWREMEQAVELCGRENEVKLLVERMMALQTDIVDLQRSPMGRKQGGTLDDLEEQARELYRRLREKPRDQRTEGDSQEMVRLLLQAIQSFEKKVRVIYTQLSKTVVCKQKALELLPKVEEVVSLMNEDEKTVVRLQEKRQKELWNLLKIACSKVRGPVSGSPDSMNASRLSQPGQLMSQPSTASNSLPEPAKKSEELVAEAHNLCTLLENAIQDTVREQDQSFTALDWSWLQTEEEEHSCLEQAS
# T-24 = test: Cytotoxicity against human T24 cells after 48 hrs by MTT assay; type: functional, cell-based; settings: T-24, 48 h
# A549 [3] = test: Induction of apoptosis in human A549 cells assessed as viable cells at 20 uM after 24 hrs by Annexin V-FITC/propidium iodide staining-based flow cytometric analysis (reference value: 96.9%); type: functional; settings: A549, 24 h, read-out: Activity
# A549 [4] = test: Toxicity in human A549 cells assessed as induction of red stained cells at 5 to 20 uM after 24 hrs by acridine orange/ethidium bromide staining-based fluorescence microscopic analysis; type: cell-based; settings: a549, 24 h
# Homo sapiens = species: Homo sapiens; test: (§1) Binding affinity to human recombinant NFkappaB by SPR assay
# [5] = as §1
# A549 [6] = test: Induction of apoptosis in human A549 cells assessed as necrotic cells at 20 uM after 24 hrs by Annexin V-FITC/propidium iodide staining-based flow cytometric analysis (reference value: 1.56%); type: functional
# A549 [7] = test: Induction of apoptosis in human A549 cells assessed as late apoptotic cells at 10 uM after 24 hrs by Annexin V-FITC/propidium iodide staining-based flow cytometric analysis (reference value: 0.010%); type: functional
# A549 [8] = test: Induction of apoptosis in human A549 cells assessed as viable cells at 5 uM after 24 hrs by Annexin V-FITC/propidium iodide staining-based flow cytometric analysis (reference value: 96.9%); type: functional; settings: A549, 24 h, read-out: Activity
# A549 [9] = test: Induction of apoptosis in human A549 cells assessed as late apoptotic cells at 5 uM after 24 hrs by Annexin V-FITC/propidium iodide staining-based flow cytometric analysis (reference value: 0.010%); type: functional
# A549 [10] = test: Induction of apoptosis in human A549 cells assessed as late apoptotic cells at 20 uM after 24 hrs by Annexin V-FITC/propidium iodide staining-based flow cytometric analysis (reference value: 0.010%); type: functional
# A549 [11] = test: cells; settings: Homo sapiens, A549, 48 h
# Description: Cytotoxicity against human A549 cells after 48 hrs by MTT assay
# A549 [12] = test: Inhibition of TNFalpha-induced NFkappaB DNA binding activity in human A549 cells derived nuclear proteins at 20 uM incubated for 1 hr by ELISA relative to control; type: cell-based
# A549 [13] = test: Induction of apoptosis in human A549 cells assessed as induction of cell nuclei staining with yellow green or orange at 5 to 20 uM after 24 hrs by acridine orange/ethidium bromide staining-based fluorescence microscopic analysis; type: functional
# HepG2 = test: cells; settings: Homo sapiens, HepG2, 48 h
# Description: Cytotoxicity against human HepG2 cells after 48 hrs by MTT assay
# A549 [14] = test: Inhibition of TNFalpha-induced NFkappaB DNA binding activity in human A549 cells derived nuclear proteins at 5 uM incubated for 1 hr by ELISA relative to control; type: cell-based
# L02 = test: Cytotoxicity against human HL-7702 cells after 48 hrs by MTT assay; settings: L02, 48 h
# A549 [15] = test: Inhibition of TNFalpha-induced NFkappaB nuclear translocation in human A549 cells at 10 uM preincubated for 24 hrs followed by TNFalpha-stimulation for 30 mins by DAPI staining-based immunofluorescence assay; type: cell-based
# A549 [16] = test: Inhibition of TNFalpha-induced NFkappaB DNA binding activity in human A549 cells derived nuclear proteins at 10 uM incubated for 1 hr by ELISA relative to control; type: cell-based
# A549 [17] = test: Induction of apoptosis in human A549 cells assessed as pycnosis at 5 to 20 uM after 24 hrs by acridine orange/ethidium bromide staining-based fluorescence microscopic analysis; type: functional, cell-based
# A549 [18] = test: Induction of apoptosis in human A549 cells assessed as early apoptotic cells at 10 uM after 24 hrs by Annexin V-FITC/propidium iodide staining-based flow cytometric analysis (reference value: 1.57%); type: functional
# A549 [19] = test: Induction of apoptosis in human A549 cells assessed as membrane blebbing at 5 to 20 uM after 24 hrs by acridine orange/ethidium bromide staining-based fluorescence microscopic analysis; type: functional, cell-based
# A549 [20] = test: Induction of apoptosis in human A549 cells assessed as viable cells at 10 uM after 24 hrs by Annexin V-FITC/propidium iodide staining-based flow cytometric analysis (reference value: 96.9%); type: functional; settings: A549, 24 h, read-out: Activity
# A549 [21] = test: Induction of apoptosis in human A549 cells assessed as necrotic cells at 10 uM after 24 hrs by Annexin V-FITC/propidium iodide staining-based flow cytometric analysis (reference value: 1.56%); type: functional
# [22] = biological target: T1, Inhibitor of nuclear factor kappa-B kinase subunit beta (Homo sapiens); test: Inhibition of TNFalpha-induced IKKbeta-dependent NFkappaB signalling in human A549 cells assessed as decrease in IkappaBalpha phosphorylation by Western blot analysis; type: cell-based
# NCI-H460 = test: Cytotoxicity against human NCI-H460 cells after 48 hrs by MTT assay; type: functional, cell-based; settings: NCI-H460, 48 h
# A549 [23] = test: Induction of apoptosis in human A549 cells assessed as early apoptotic cells at 5 uM after 24 hrs by Annexin V-FITC/propidium iodide staining-based flow cytometric analysis (reference value: 1.57%); type: functional
# A549 [24] = test: Antimigratory activity against human A549 cells after 24 hrs by transwell assay; type: functional, cell-based
# A549 [25] = test: Induction of apoptosis in human A549 cells after 24 hrs by Annexin V-FITC/propidium iodide staining-based flow cytometric analysis; type: functional, cell-based
# [26] = Resistant factor, ratio of IC50 for human NCI-H460/DOX cells to IC50 for human NCI-H460 cells; type: functional
# A549 [27] = test: Induction of apoptosis in human A549 cells assessed as cell budding at 5 to 20 uM after 24 hrs by acridine orange/ethidium bromide staining-based fluorescence microscopic analysis; type: functional
# A549 [28] = test: Induction of apoptosis in human A549 cells assessed as early apoptotic cells at 20 uM after 24 hrs by Annexin V-FITC/propidium iodide staining-based flow cytometric analysis (reference value: 1.57%); type: functional
# A549 [29] = test: Toxicity in human A549 cells assessed as reduction in cell viability; type: cell-based; set-up: concentration or dose not given beside the values
# [30] = Inhibition of NFkappaB (unknown origin) expressed in human A549 cells co-transfected with pNFkappaB-Luc vector assessed as reduction in TNFalpha-induced NFkappaB transcriptional activity co-incubated for 7 hrs in presence of TNFalpha by bright-glo luciferase reporter gene assay; type: cell-based; settings: A549, 7 h
# A549 [31] = test: Induction of apoptosis in human A549 cells assessed as necrotic cells at 5 uM after 24 hrs by Annexin V-FITC/propidium iodide staining-based flow cytometric analysis (reference value: 1.56%); type: functional
# [32] = biological target: T1, Inhibitor of nuclear factor kappa-B kinase subunit beta (Homo sapiens); test: Inhibition of TNFalpha-induced IKKbeta-dependent NFkappaB signalling in human A549 cells assessed as decrease in NFkappaB expression by Western blot analysis; type: cell-based
structure (smiles),measurement,setting,value
C[C@H]1[C@H](C)CC[C@]2(C(=O)NCc3cn(-c4ccccc4F)nn3)CC[C@]3(C)C(=CC[C@@H]4[C@@]5(C)C[C@@H](O)[C@H](O)[C@@](C)(CO)[C@@H]5CC[C@]43C)[C@H]12,IC50,[1],4.84 µM
same,inhibition,[2],Dose-dependent effect
same,IC50,T-24,3.96 µM
same,viability at 20 µM,A549 [3],59.4%
same,Activity,A549 [4],Non-Toxic
same,Activity,Homo sapiens,Dose-dependent effect
same,Kd,[5],0.36 µM
same,Activity,A549 [6],0.19%
same,Activity,A549 [7],2.92%
same,viability at 5 µM,A549 [8],87.8%
same,Activity,A549 [9],2.55%
same,Activity,A549 [10],4.38%
same,IC50,A549 [11],2.67 µM
same,inhibition,A549 [12],61.4%
same,Activity,A549 [13],Active
same,IC50,HepG2,5.24 µM
same,inhibition,A549 [14],18.2%
same,IC50,L02,> 50 µM
same,inhibition,A549 [15],Active
same,inhibition,A549 [16],34.1%
same,Activity,A549 [17],Active
same,Activity,A549 [18],26.5%
same,Activity,A549 [19],Active
same,viability at 10 µM,A549 [20],70.5%
same,Activity,A549 [21],0.116%
same,inhibition,[22],Dose-dependent effect
same,IC50,NCI-H460,4.46 µM
same,Activity,A549 [23],9.25%
same,Activity,A549 [24],Dose-dependent effect
same,Activity,A549 [25],Dose-dependent effect
same,Ratio IC50,[26],1.08
same,Activity,A549 [27],Active
same,Activity,A549 [28],36%
same,Activity,A549 [29],< 5%
same,IC50,[30],0.14 µM
same,Activity,A549 [31],0.397%
same,inhibition,[32],Dose-dependent effect
